We go through ten compounds from patent US10358436B2, “Kinase inhibitors and method of treating cancer” (University Health Network, priority 2010, dated 2019).

The assay deals with Aurora A (Homo sapiens (Human), UniProt O14965). Briefly: Aurora A inhibition assay (Z-Lyte). In kind it is biochemical.

The structures appear in SMILES notation. Counter-ions that a name gives are not always drawn. Where only a bound is given, the exact number is not on record here.

Sequence of Aurora A (O14965 whole entry): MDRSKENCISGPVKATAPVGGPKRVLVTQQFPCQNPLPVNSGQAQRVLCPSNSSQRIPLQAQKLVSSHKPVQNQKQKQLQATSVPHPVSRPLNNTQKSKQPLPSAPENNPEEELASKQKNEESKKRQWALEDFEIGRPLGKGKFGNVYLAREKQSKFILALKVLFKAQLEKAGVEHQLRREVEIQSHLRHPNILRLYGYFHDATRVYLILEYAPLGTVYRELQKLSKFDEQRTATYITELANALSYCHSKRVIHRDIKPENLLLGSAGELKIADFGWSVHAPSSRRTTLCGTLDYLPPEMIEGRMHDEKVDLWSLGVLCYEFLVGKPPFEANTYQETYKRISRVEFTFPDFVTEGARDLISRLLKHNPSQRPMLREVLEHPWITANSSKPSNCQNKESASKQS

With `COc1ccc2c(c1)[C@]1(C[C@H]1c1ccc3c(-c4ccc(N5C[C@@H](C)N[C@@H](C)C5)cc4)n[nH]c3c1)C(=O)N2` [Example A126, (1R,2S)-2-(3-(4-(cis-3,5-dimethylpiperazin-1-yl)phenyl)-1H-indazol-6-yl)-5′-methoxyspiro[cyclopropane-1,3′-indolin]-2′-one 2,2,2-trifluoroacetate], the inhibition at 1 µM is less than 50%.

Take `COc1ccc2c(c1)[C@]1(C[C@H]1c1ccc3c(-c4ccc(C5CCNCC5)cc4)n[nH]c3c1)C(=O)N2` (relative stereo) [Example A122, (1R*,2S*)-5′-methoxy-2-(3-(4-(piperidin-4-yl)phenyl)-1H-indazol-6-yl)spiro[cyclopropane-1,3′-indolin]-2′-one 2,2,2-trifluoroacetate]: the inhibition at 1 µM is less than 50%.

In turn, `O=C1Nc2ccccc2[C@]12C[C@H]2c1ccc2c(/C=C/c3cc(F)c(CN4CCOCC4)c(F)c3)n[nH]c2c1` [Example A116, (1R,2S)-(E)-2-(3-(3,5-difluoro-4-(morpholinomethyl)styryl)-1H-indazol-6-yl)spiro[cyclopropane-1,3′-indolin]-2′-one 2,2,2-trifluoroacetate] had an inhibition at 1 µM greater than 50%.

On to `COc1ccc2c(c1)[C@]1(C[C@H]1c1ccc3c(-c4ccc(CCN5CCOCC5)cc4)n[nH]c3c1)C(=O)N2` (relative stereo) [Example A159, (1R*,2S*)-5′-methoxy-2-(3-(4-(2-morpholinoethyl)phenyl)-1H-indazol-6-yl)spiro[cyclopropane-1,3′-indolin]-2′-one 2,2,2-trifluoroacetate], for which the inhibition at 1 µM was less than 50%.

`O=C1Nc2ccccc2[C@]12C[C@H]2c1ccc2c(/C=C/c3ccc(OCCN4CCOCC4)cc3)n[nH]c2c1` [Example A204, (1R,2S)-(E)-2-(3-(4-(2-morpholinoethoxy)styryl)-1H-indazol-6-yl)spiro[cyclopropane-1,3′-indolin]-2′-one 2,2,2-trifluoroacetate] had an inhibition at 1 µM greater than 50%.

`COc1ccc2c(c1)[C@]1(CC1c1ccc3c(/C=C/c4ccc(CN5CCCCC5)nc4)n[nH]c3c1)C(=O)N2` (mixture of isomers) [Example A62, (1R,2S)-(E)-5′-methoxy-2-(3-((E)-2-(6-(piperidin-1-ylmethyl)pyridin-3-yl)vinyl)-1H-indazol-6-yl)spiro[cyclopropane-1,3′-indolin]-2′-one 2,2,2-trifluoroacetate salt]: the inhibition at 1 µM was greater than 50%.

`COc1ccc2c(c1)[C@]1(C[C@H]1c1ccc3c(/C=C/c4cc(F)c(CN(C)C)c(F)c4)n[nH]c3c1)C(=O)N2` (relative stereo) [Example A215, (1R*,2S*)-(E)-2-(3-(4-((dimethylamino)methyl)-3,5-difluorostyryl)-1H-indazol-6-yl)-5′-methoxyspiro[cyclopropane-1,3′-indolin]-2′-one 2,2,2-trifluoro acetate] showed an IC50 of less than 100 nM.

Consider `CN1CCN(c2ccc(-c3n[nH]c4cc([C@@H]5C[C@@]56C(=O)Nc5ccc(OC(F)F)cc56)ccc34)cn2)CC1` (relative stereo) [Example A209, 1R*,2S*1-5′-(difluoromethoxy)-2-(3-(6-(4-methylpiperazine-1-yl)pyridine-3-yl)-1H-indazol-6-yl) spiro[cyclopropane-1,3′-indolin]-2′-one 2,2,2-trifluoroacetate], for which the inhibition at 1 µM is less than 50%.

As to `COc1ccc2c(c1)[C@]1(C[C@H]1c1ccc3c(-c4ccc(N5CCNCC5)cc4)n[nH]c3c1)C(=O)N2` (relative stereo) [Example A48, (1R*,2S*)-5′-methoxy-2-(3-(4-(piperazin-1-yl)phenyl)-1H-indazol-6-yl)spiro[cyclopropane-1,3′-indolin]-2′-one 2,2,2-trifluoroacetate], the inhibition at 1 µM is less than 50%.

On to `COc1ccc2c(c1)[C@]1(C[C@H]1c1ccc3c(/C=C/c4cccc(CN5CCOCC5)c4)n[nH]c3c1)C(=O)N2` (relative stereo) [Example A133, (1R*,2S*)-5′-methoxy-2-(3-(3-(morpholinomethyl)styryl)-1H-indazol-6-yl)spiro[cyclopropane-1,3′-indolin]-2′-one 2,2,2-trifluoroacetate], for which the inhibition at 1 µM was greater than 50%.
